Measurements published in article PMC10384183, “Silver(I) and Copper(II) 1,10-Phenanthroline-5,6-dione Complexes as Promising Antivirulence Strategy against Leishmania: Focus on Gp63 (Leishmanolysin)” (Tropical Medicine and Infectious Disease, 2023).
Like-named read-outs stand apart in the source and are kept apart here. Where a SMILES comes first, the peptide text is derived from it. The star is where a group is joined. AMC = Cc1cc(=O)oc2cc(N*)ccc12; Cbz = O=C(OCc1ccccc1)*

Legend:
secreted gp63 [1] = target: T1, secreted gp63 (Leishmania amazonensis, UniProt Q27673); test: Detection of gp63 activity using fluorogenic substrate Z-Phe-Arg-AMC (kinetics, classical inhibitors); format: biochemical; design: endogenous in cells; host or cells: Leishmania amazonensis promastigotes; 0.22-µm filtered PBS-glucose-conditioned supernatant; settings: for effect on hydrolysis of Z-Phe-Arg-AMC by gp63: 1 h, alkaline pH
T1 sequence (Q27673 100-597): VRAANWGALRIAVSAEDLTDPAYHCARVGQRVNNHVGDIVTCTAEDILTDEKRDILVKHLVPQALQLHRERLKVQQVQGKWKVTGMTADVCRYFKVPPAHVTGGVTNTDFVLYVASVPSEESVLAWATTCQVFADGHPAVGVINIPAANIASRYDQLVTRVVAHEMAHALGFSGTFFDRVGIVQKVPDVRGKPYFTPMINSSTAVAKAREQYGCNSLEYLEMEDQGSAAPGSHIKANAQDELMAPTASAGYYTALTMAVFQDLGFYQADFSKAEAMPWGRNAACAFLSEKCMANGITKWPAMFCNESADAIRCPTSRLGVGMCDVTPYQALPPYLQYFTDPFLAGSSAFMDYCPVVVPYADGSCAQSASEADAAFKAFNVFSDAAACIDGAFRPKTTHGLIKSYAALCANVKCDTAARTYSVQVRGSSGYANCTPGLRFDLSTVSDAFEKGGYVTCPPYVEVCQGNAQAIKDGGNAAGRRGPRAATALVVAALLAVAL
Procedure: The enzymatic activity of secreted gp63 was evaluated by the cleavage of the fluorogenic substrate Z-Phe-Arg-AMC. A 5 mM stock solution of the fluorogenic substrate was prepared in DMSO. The reaction was initiated by adding different substrate concentrations (2.5 µM, 5.0 µM, 10 µM and 20 µM) to gp63 (20 µg protein) in a total volume of 100 µL of 50 mM glycine-NaOH buffer, pH 10.0 [38]. At the same time, the titration of the amount of gp63 was also performed. In this sense, different concentrations of gp63 (ranging from 0.156 to 20 µg) were added to 10 µM Z-Phe-Arg-AMC substrate in a total volume of 100 µL of 50 mM glycine-NaOH buffer, pH 10.0. […] The reaction mixture was incubated at 37 °C for 1 h and the assays were controlled for self-release of the fluorophore in the same time interval. Proteolytic activity was expressed as fluorescence arbitrary units (FAU). Apparent Km and Vmax values were calculated using a computerized non-linear regression from the data obtained from the Michaelis–Menten equation (GraphPad Prism 8).

[2] = tested on: cell-associated metallo-type peptidases (gp63); test: gp63 proteolytic activity of cell extracts of treated promastigotes; format: cell-based, Leishmania amazonensis; settings: promastigotes treated 24 h, IC50 and 2 × IC50; Z-Phe-Arg-AMC; versus untreated cells
Procedure: After that, promastigotes were washed and processed to evaluate both gp63 activity and gp63 protein levels.
For gp63 proteolytic activity, initially, whole parasite cellular extracts were obtained by repeated freeze/thawing cycles using 10^6 viable cells in PBS containing 1% CHAPS (3-[(3-cholamidopropyl) dimethylammonium]-1-propanesulfonate), pH 7.0. […] The gp63 proteolytic activity was determined as previously described using the cleavage of the fluorogenic substrate Z-Phe-Arg-AMC.

[3] = tested on: L. amazonensis promastigotes and THP-1 human macrophages; test: Promastigotes-macrophage interaction (association index); format: cell-based, Leishmania amazonensis; design: key: % infected macrophages × amastigotes per macrophage
Procedure: The human leukemia monocytic cell line (THP-1) was maintained in 25-cm^2 tissue culture flasks with RPMI 1640 medium (Sigma-Aldrich, St. Louis, MO, USA) supplemented with 10% FBS at 37 °C in an atmosphere containing 5% CO2. To perform interaction experiments, THP-1 cells were seeded in 24-well plates at a density of 2 × 10^5 cells/well and then differentiated into macrophages by treatment with phorbol-12-myristate-13-acetate (PMA; 40 ng/mL) (Sigma-Aldrich) for 48 h. Then, the plates were washed twice with sterile PBS (pH 7.2) to remove PMA and a fresh RPMI 1640 medium was added. At the same time, L. amazonensis promastigotes were treated with the IC50 or 2 × IC50 values of the test compounds for 24 h. After this period, the parasites were allowed to infect the mammalian cells (10 parasites per macrophage) for 24 h at 37 °C and 5% CO2, in the absence or presence of 10 µg soluble gp63. Then, the cultures were washed with PBS to remove non-internalized parasites, fixed with methanol and stained with Giemsa. The percentage of infected macrophages was determined by randomly counting 200 cells on each of triplicate coverslips using a bright-field microscope. The association index was obtained by multiplying the percentage of infected macrophages by the number of amastigotes per macrophage.

[4] = tested on: L. braziliensis gp63, membrane-associated form; design: method as in PMID 34363115; settings: cited from earlier work
[5] = tested on: L. braziliensis promastigotes and murine macrophages; design: method as in PMID 34363115; settings: promastigotes pre-treated for 1 h; cited from earlier work
L. braziliensis = tested on: L. braziliensis; design: method as in doi:10.1016/j.ejmcr.2022.100093; settings: hamsters; cited from earlier work
secreted gp63 [6] = target: T1, secreted gp63
Procedure: (§1) L. amazonensis promastigotes (10^9 cells) were resuspended in 2 mL of sterile isotonic PBS supplemented with 2% glucose and incubated for 3 h at both 26 °C (invertebrate host temperature) and 37 °C (mammalian host temperature). After this interval, parasite cells were removed by centrifugation and the supernatant (named PBS-glucose-conditioned supernatant) was passed over a 0.22-μm sterilizing membrane (Millipore, São Paulo, Brazil). The protein concentration was quantified by the method described by Lowry et al. [35], using bovine serum albumin (BSA) as standard.
(§2) To perform this, the reaction mixture containing 10 μg protein, 10 µM substrate and 50 mM glycine-NaOH buffer, pH 10.0, was incubated in the absence or presence of different concentrations of Ag-phendione (ranging from 40 to 0.625 μM) and Cu-phendione (ranging from 1000 to 15.62 μM). Fluorescence was measured using a SpectraMax Gemini XPS fluorescence microplate reader (Molecular Devices, Silicon Valley, CA, USA) at an excitation wavelength of 380 nm and an emission wavelength of 460 nm. […] The inhibitory constant (Ki) value was calculated using a derivation of the Michaelis–Menten equation employing GraphPad Prism 8.

[7] = tested on: L. amazonensis promastigotes; design: method as in PMID 36678418; settings: 72 h of parasite-drug contact; cited from earlier work
[8] = tested on: L. amazonensis amastigotes; design: method as in PMID 36678418; settings: amastigotes in THP-1 macrophages; cited from earlier work
LasB = target: LasB; design: method as in PMID 31428062; settings: cited from earlier work
secreted gp63 [9] = target: T1, secreted gp63; test: Gelatin-SDS-PAGE zymography of gp63 proteolysis; format: biochemical; design: endogenous in cells; host or cells: Leishmania amazonensis promastigotes; 0.22-µm filtered PBS-glucose-conditioned supernatant; settings: 10 mM, pH 10.0, 48 h, 37 °C
Procedure: Proteolytic activity was assayed by SDS-PAGE containing 0.1% gelatin (Sigma-Aldrich, St. Louis, MO, USA) incorporated into the gel as the proteinaceous substrate. Briefly, 10 micrograms of proteins present in the PBS-glucose-conditioned supernatant were added to the SDS-PAGE sample buffer (125 mM Tris, pH 6.8, 4% SDS, 20% glycerol and 0.002% bromophenol blue) and subsequently subjected to electrophoresis, which was processed at 200 V/20 mA, for 2 h at 4 °C. Subsequently, SDS was removed by incubation of the gels with 2.5% Triton X-100 (Sigma-Aldrich, St. Louis, MO, USA) for 1 h at room temperature under constant agitation. The gels were incubated for 48 h at 37 °C in 50 mM glycine-NaOH buffer, pH 10.0, to promote proteolysis in the absence and in the presence of classical proteolytic inhibitors as follows: 10 mM phen, 10 mM phenylmethylsulphonyl fluoride (PMSF; Sigma-Aldrich, St. Louis, MO, USA) and 10 µM trans-epoxysuccinyl L-leucylamido-(4-guanidino) butane (E-64; Sigma-Aldrich, St. Louis, MO, USA). Finally, the gels were stained with 0.2% Coomassie Brilliant Blue R-250 (Sigma-Aldrich, St. Louis, MO, USA) in methanol–acetic acid–water (50:10:40) and destained in a solution containing methanol–acetic acid–water (5:10:85). The molecular masses of the peptidases were estimated by comparison with the mobility of molecular mass standards (Thermo Fisher Scientific, Waltham, MA, USA).

secreted gp63 [10] = target: T1, secreted gp63; test: biochemical
Procedure: as §1, §2

papain = tested on: papain; design: method as in PMID 8907521; settings: cited from earlier work
[11] = promastigotes pre-treated 24 h with 2 × IC50 value, in the presence of 10 µg gp63-rich supernatant
[12] = promastigotes pre-treated 24 h with 2 × IC50 value, without gp63-rich supernatant
[13] = promastigotes pre-treated 24 h with IC50 value, in the presence of 10 µg gp63-rich supernatant
[14] = promastigotes pre-treated 24 h with IC50 value, without gp63-rich supernatant

## CC(C)C[C@H](NC(=O)[C@H]1O[C@@H]1C(=O)O)C(=O)NCCCCN=C(N)N (relative stereo) [E-64, trans-epoxysuccinyl L-leucylamido-(4-guanidino) butane]
Secreted gp63 [1]; inhibitor at 10 µM
  effect on hydrolysis of Z-Phe-Arg-AMC by gp63: did not significantly change the enzymatic activity

## O=C1C(=O)c2cccnc2-c2ncccc21.O=C1C(=O)c2cccnc2-c2ncccc21.[Ag+].[O-][Cl+3]([O-])([O-])[O-] [Ag-phendione, [Ag(phendione)2]ClO4]
[2]
  proteolytic capacity of cell-associated metallo-type peptidases reduced to: approximately 55%
[3]; [11]
  association index (AI): 77.3
[3]; [12]
  association index (AI): 48.2
[3]; [13]
  association index (AI): 88.1
[3]; [14]
  association index (AI): 60.6
[4]; 1 μg/mL
  reduction of proteolytic activity: 68%
[5]
  reduction of the Leishmania-macrophage interaction: approximately 51.4%
L. braziliensis
  protective action (paw lesion, parasite number in paw and lymph nodes): excellent protective action

## O.O.O.O.O=C1C(=O)c2cccnc2-c2ncccc21.O=C1C(=O)c2cccnc2-c2ncccc21.O=C1C(=O)c2cccnc2-c2ncccc21.[Cu+2].[O-][Cl+3]([O-])([O-])[O-].[O-][Cl+3]([O-])([O-])[O-] [Cu-phendione, [Cu(phendione)3](ClO4)2.4H2O]
[2]
  proteolytic capacity of cell-associated metallo-type peptidases reduced to: approximately 48%
[3]; [11]
  association index (AI): 64.6
[3]; [12]
  association index (AI): 54.8
[3]; [13]
  association index (AI): 76.5
[3]; [14]
  association index (AI): 63.1
Secreted gp63 [6]; secreted gp63 10 µg, 10 µM Z-Phe-Arg-AMC, glycine-NaOH pH 10.0, 37 °C, 1 h
  IC50: 163 µM
Secreted gp63 [6]; secreted gp63, Z-Phe-Arg-AMC, glycine-NaOH pH 10.0
  Ki: 27.1 µM
[7]
  IC50: 7.5 nM
[8]
  IC50: 35 nM
LasB
  Ki: 90 nM
[4]; 0.1 μg/mL
  reduction of proteolytic activity: 65%
[4]; 1 μg/mL
  reduction of proteolytic activity: 80%
[5]
  reduction of the Leishmania-macrophage interaction: 44.4%
L. braziliensis
  protective action (paw lesion, parasite number in paw and lymph nodes): excellent protective action

## O=S(=O)(F)Cc1ccccc1 [PMSF, phenylmethylsulphonyl fluoride]
Secreted gp63 [1]; inhibitor at 10 mM
  effect on hydrolysis of Z-Phe-Arg-AMC by gp63: did not significantly change the enzymatic activity

## c1cnc2c(c1)ccc1cccnc12 [Phen, 1,10-phenanthroline]
Secreted gp63 [1]; inhibitor at 10 mM
  effect on hydrolysis of Z-Phe-Arg-AMC by gp63: strong inhibition of the proteolytic activity
Secreted gp63 [9]
  effect on proteolytic bands around 66 kDa: inhibited

## O=C1C(=O)c2cccnc2-c2ncccc21 [Phendione, 1,10-Phenanthroline-5,6-dione]
LasB
  Ki: 380 nM
[4]; 1 μg/mL
  reduction of proteolytic activity: 67%
Secreted gp63 [10]
  IC50: 1.49 mM
  Ki: 745 µM

## Cc1cc(=O)oc2cc(NC(=O)C(CCCN=C(N)N)NC(=O)C(Cc3ccccc3)NC(=O)OCc3ccccc3)ccc12 (stereo not drawn) [Z-Phe-Arg-AMC] (Cbz-Phe-Arg-{AMC}; configuration not given here)
Secreted gp63 [1]; cleavage of Z-Phe-Arg-AMC by released gp63, pH 10.0, 37 °C
  Vmax: 0.064 µM/s
Secreted gp63 [1]; cleavage of Z-Phe-Arg-AMC by released gp63, pH 10.0, 37 °C, read-out: apparent Km
  Km: 14.2 µM

## oryzacystatin I1 [OCII, reference compound]
papain
  proteolytic activity of papain restored after electrophoresis: ~100%

B1: oryzacystatin I (protein, UniProt P09229 27-140, looked up)
Cysteine proteinase inhibitor …: EAHRAGGEGEEKMSSDGGPVLGGVEPVGNENDLHLVDLARFAVTEHNKKANSLLEFEKLVSVKQQVVAGTLYYFTIEVKEGDAKKLYEAKVWEKPWMDFKELQEFKPVDASANA
papain
  inhibition of enzymatic activity of papain by the complex after electrophoresis: about 80%
